Source: ChEMBL document CHEMBL1201862, “PubChem BioAssay data set” (2004)
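Method: 48-hour compound exposure of cells in 96-well plates, five concentrations, linear interpolation of endpoints. The concentration for 50% growth inhibition is given as GI50.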 The source made the active and inactive calls. Cut-off read from the data, not from the text of the source: active = GI50 up to about 1.1 µM and inactive = higher.

Assays:
Test in all cases: NCI tumour cell line growth inhibition, 48 h
LOX IMVI = test system: LOX IMVI
ACHN = test system: ACHN
MDA-MB-435 = test system: MDA-MB-435
TK-10 = test system: TK-10
SN12C = test system: SN12C
KM12 = test system: KM12
A549 = test system: A549
DU-145 = test system: DU-145
UO-31 = test system: UO-31
HCT-116 = test system: HCT-116
SF-295 = test system: SF-295
786-0 = test system: 786-0
IGROV-1 = test system: IGROV-1
UACC-62 = test system: UACC-62
NCI/ADR-RES = test system: NCI/ADR-RES
K562 = test system: K562
HT-29 = test system: HT-29
NCI-H522 = test system: NCI-H522
Hs-578T = test system: Hs-578T
RPMI-8226 = test system: RPMI-8226

Measured: GI50

CC1(C)O[C@@H](CP(c2ccc3ccccc3c2)c2ccc3ccccc3c2)[C@H](CP(c2ccc3ccccc3c2)c2ccc3ccccc3c2)O1
inactive: LOX IMVI > 100 µM | ACHN > 100 µM | MDA-MB-435 > 100 µM | TK-10 > 100 µM | SN12C > 100 µM | KM12 70.1 µM | A549 > 100 µM | DU-145 > 100 µM | UO-31 > 100 µM | HCT-116 > 100 µM | SF-295 > 100 µM | 786-0 > 100 µM | IGROV-1 33 µM | UACC-62 > 100 µM | NCI/ADR-RES > 100 µM | K562 77.1 µM | HT-29 85.5 µM | NCI-H522 25.5 µM

c1csc(-c2ccc(-c3ccc(-c4ccc(-c5cccs5)s4)s3)s2)c1
inactive: Hs-578T > 100 µM | ACHN > 100 µM | MDA-MB-435 > 100 µM | TK-10 > 100 µM | SN12C > 100 µM | DU-145 > 100 µM | RPMI-8226 > 100 µM | UO-31 > 100 µM | HCT-116 > 100 µM | SF-295 40.6 µM | 786-0 > 100 µM | IGROV-1 > 100 µM | UACC-62 > 100 µM | NCI/ADR-RES > 100 µM | K562 47.1 µM | HT-29 > 100 µM

CSc1nn(C)cc2nc(C)nc1-2
inactive: Hs-578T > 100 µM | ACHN > 100 µM | MDA-MB-435 > 100 µM | TK-10 > 100 µM | SN12C > 100 µM | KM12 > 100 µM | A549 > 100 µM | DU-145 > 100 µM | RPMI-8226 > 100 µM | UO-31 > 100 µM | HCT-116 > 100 µM | SF-295 > 100 µM | 786-0 > 100 µM | IGROV-1 > 100 µM | UACC-62 > 100 µM | NCI/ADR-RES > 100 µM | K562 > 100 µM | HT-29 > 100 µM

S=C1NC2=C(COc3ccccc32)C(c2ccc(Cl)cc2)N1 (centres undefined)
inactive: Hs-578T 21.6 µM | LOX IMVI 16.3 µM | ACHN 22.9 µM | MDA-MB-435 24 µM | SN12C 2.54 µM | KM12 16.2 µM | A549 20.2 µM | DU-145 19.9 µM | RPMI-8226 5.78 µM | UO-31 18.4 µM | HCT-116 15.5 µM | SF-295 13.8 µM | 786-0 19.2 µM | IGROV-1 16.6 µM | UACC-62 17.4 µM | NCI/ADR-RES 18.9 µM | K562 15.6 µM | HT-29 15.5 µM

COc1cc(C(C)=O)cc(C(=O)N(C(C)C)C(C)C)c1[Si](C)(C)C
inactive: Hs-578T > 100 µM | LOX IMVI > 100 µM | ACHN > 100 µM | MDA-MB-435 > 100 µM | TK-10 > 100 µM | KM12 > 100 µM | A549 67.8 µM | DU-145 > 100 µM | UO-31 > 100 µM | HCT-116 > 100 µM | SF-295 > 100 µM | 786-0 > 100 µM | IGROV-1 > 100 µM | UACC-62 > 100 µM | NCI-H522 34.8 µM

N#CC1C(=O)SC2c3ccccc3C(=O)c3ccccc3C12 (centres undefined)
inactive: Hs-578T > 10 µM | LOX IMVI > 10 µM | ACHN > 10 µM | MDA-MB-435 > 10 µM | TK-10 > 10 µM | SN12C > 10 µM | KM12 > 10 µM | A549 > 10 µM | DU-145 > 10 µM | RPMI-8226 > 10 µM | UO-31 > 10 µM | HCT-116 > 10 µM | SF-295 > 10 µM | 786-0 > 10 µM | IGROV-1 > 10 µM | UACC-62 > 10 µM | NCI/ADR-RES > 10 µM | K562 > 10 µM | HT-29 > 10 µM

CN(C(=O)C12C3C4C1C1C2C3C41C(=O)C(C)(C)C)C(C)(C)C (centres undefined)
inactive: LOX IMVI > 100 µM | ACHN > 100 µM | TK-10 > 100 µM | SN12C > 100 µM | KM12 > 100 µM | A549 > 100 µM | RPMI-8226 > 100 µM | UO-31 > 100 µM | HCT-116 > 100 µM | SF-295 > 100 µM | 786-0 > 100 µM | IGROV-1 > 100 µM | UACC-62 > 100 µM | K562 > 100 µM | HT-29 > 100 µM | NCI-H522 22 µM

CC(C)C(=O)N1C(=O)O[C@@H](c2ccccc2)[C@H]1C
inactive: LOX IMVI > 100 µM | ACHN > 100 µM | TK-10 > 100 µM | SN12C > 100 µM | KM12 > 100 µM | A549 > 100 µM | RPMI-8226 > 100 µM | UO-31 > 100 µM | HCT-116 > 100 µM | SF-295 > 100 µM | 786-0 > 100 µM | IGROV-1 > 100 µM | UACC-62 > 100 µM | K562 > 100 µM | HT-29 > 100 µM | NCI-H522 > 100 µM

c1ccc(Nc2nnc(CCCCCCCCc3nnc(Nc4ccccc4)o3)o2)cc1
inactive: LOX IMVI > 100 µM | ACHN > 100 µM | MDA-MB-435 > 100 µM | TK-10 > 100 µM | SN12C > 100 µM | KM12 > 100 µM | A549 > 100 µM | DU-145 > 100 µM | UO-31 > 100 µM | HCT-116 > 100 µM | SF-295 > 100 µM | 786-0 > 100 µM | IGROV-1 60.3 µM | NCI/ADR-RES > 100 µM | K562 > 100 µM | HT-29 > 100 µM | NCI-H522 > 100 µM

CC(=O)OCC1OC(n2c(C)c(/N=N/c3ccc(Cl)cc3)c(C)c(C#N)c2=S)C(OC(C)=O)C(OC(C)=O)C1OC(C)=O (centres undefined)
inactive: Hs-578T 21.5 µM | LOX IMVI 86.3 µM | ACHN 58.1 µM | MDA-MB-435 > 100 µM | TK-10 40.5 µM | SN12C > 100 µM | KM12 > 100 µM | A549 64.4 µM | DU-145 73.3 µM | RPMI-8226 > 100 µM | UO-31 > 100 µM | HCT-116 48.1 µM | SF-295 25.1 µM | 786-0 19.9 µM | IGROV-1 41.8 µM | UACC-62 38.4 µM | NCI/ADR-RES > 100 µM | K562 > 100 µM | HT-29 > 100 µM

COc1ccc2cc3[n+](cc2c1OC)CCc1cc2c(cc1-3)OCO2 [BERBERINE CHLORIDE]
inactive: Hs-578T 10 µM | LOX IMVI 77.1 µM | ACHN > 100 µM | MDA-MB-435 12.8 µM | TK-10 > 100 µM | KM12 7.71 µM | DU-145 > 44.5 µM | 786-0 > 49.4 µM | IGROV-1 40.6 µM | UACC-62 29.9 µM | K562 16.6 µM | HT-29 31 µM
